The values below come from patent US20150045433A1, “METHODS AND COMPOSITIONS FOR INDUCING PHYSIOLOGICAL HYPERTROPHY” (THE REGENTS OF THE UNIVERSITY OF COLORADO, A BODY CORPORATE, priority 2009, published 2015).

For assay [1], the system named is neonatal rat ventricular myocytes (NRVMs). The assay can be described thus: NRVM cell size / hypertrophy (a-actinin staining, Coulter Counter). Type of assay: cell-based. The method, then: Primary culture cardiomyocytes prepared from neonatal rats were treated with fasted and post-fed serum samples. Twenty four hours later the cells were removed from the culturing dish and analyzed for changes in cell size by immunostaining or by automatic analyzer such as Coulter Counter.
In other experiments, neonatal rat cardiac myocytes (NRVMs) were prepared according to the method described in Waspe et al. (1990). In brief, cells were obtained from the hearts of Sprague-Dawley rat pups (1-2 days old) by trypsinization and plated in MEM medium (Hanks' salts) with 5% calf serum. After 48 h in culture, cells were transferred to serum-free medium supplemented with transferring and insulin (each 10 μg/ml). Cells were maintained in 60- or 35-mm culture dishes at a density of 200,000 cells/ml. Contaminating non-muscle cells were kept at <10% by pre-plating and addition of 0.1 mM bromodeoxyuridine to the medium though day 3 of culture.
Before treating the cells, serum samples were thawed and heat inactivated at 58° C. for 30 min. […]
Cardiomyocytes grown on gelatin-coated coverslips were infected with Ad Aqp7 for 48 h. […] Images were captured at a 40x magnification with a fluorescence microscope (Nikon E800) equipped with a digital camera (AxioCam) and Axiovision, version 3.0.6.36 imaging software (Carl Zeiss, Thornwood, NY). The surface areas were measured using NIH image software (Image J) and at least 100 individualized cells were analyzed per each experiment. Cell size was also determined by particle size analyzer, Coulter Counter Multisizer 3 ([…]).
Inhibition of fatty acid transport blocks serum-induced NRVM hypertrophy. […] NRVMs were treated with serum (2%) in the presence and absence of SSO (400 μM) for 48 hours and cell size was determined using a Coulter Counter.
Individual fatty acids were complexed to BSA as described by de Vries et al. (1997), which is hereby incorporated by reference. […] NRVM gene expression and mean cell diameter were determined after either 24 or 48 hours, respectively. […]

In assay [2] the test system is AQP7 mRNA. The assay can be described thus: AQP7 mRNA expression in neonatal rat cardiomyocytes by qPCR. It counts as cell-based. The following applies: for AQP7 mRNA expression: fasted serum (2%) plus individual fatty acid (C14: 10, 33, 100 μM; C16: 33, 100, 300 μM; C16:1: 3, 10, 33 μM), 48 hours. The method, then: Individual fatty acids were complexed to BSA as described by de Vries et al. (1997), which is hereby incorporated by reference. […] An equal volume of Na2CO3 (10 mM) was added and the ethanol was evaporated at 60° C. under continuous N2 flow. The fatty acid mix was added dropwise to 10% BSA. BSA/fatty acid complexes were then dialyzed four times at 4° C. during 4-6 hours in NH4HCO3 (0.1 M). Complexes were then frozen, lyophilized overnight, and resuspended in NRVM rinse media (MEM/PB12/Hepes) for a final concentration of 7 mM. NRVMs were treated with fasted serum, 1 day post-fed serum, or fasted serum+individual fatty acids. […] NRVM gene expression and mean cell diameter were determined after either 24 or 48 hours, respectively.
Dose-dependent effects of individual fatty acids on AQP7 expression. […] Fasted serum (2% final) and fatty acids were diluted in serum-free media (MEM/Hepes/PB12) containing insulin, trnsferrin, BSA, and BrdU. Cells were treated for 48 hours and AQP7 mRNA expression was determined using qPCR with 18S as the normalizing gene.
siRNA studies. Rat AQP7 mRNA sequence was analyzed for potential small interfering RNA (siRNA) target regions using a sequence identification tool (Ambion, Inc., Austin, Tex.). Potential target sequences were transcribed from oligonucleotide templates using the Silencer siRNA Construction kit (Ambion, Inc., Austin, Tex.). To test for the ability of siRNAs to effectively reduce AQP7 expression, NRVMs were transfected with siRNA (100 nM) using Lipofectamine Plus reagent as specified by the manufacturer (Invitrogen, Carlsbad, Calif.). Several rat AQP7-specific siRNA sequences (#1: 5′-[…]-3′ (SEQ ID NO:22); #2: […]-3′ (SEQ ID NO:23); #3 5′-[…]-3′ (SEQ ID NO:24)) were tested for efficacy of gene knockdown using qPCR. […] A nonspecific siRNA (Silencer Negative Control #2; Ambion, Inc., Austin, Tex.) was used as a negative control.

The subject of assay [3] is fetal gene program (β-myosin heavy chain, ANF, BNP, skeletal actin, SERCA). Description: Pathologic fetal gene expression in NRVMs by qPCR. The following applies: 48 hours. Type of assay: cell-based, rat. As for the experimental part: FIG. 4. […] Neonatal rat cardiomyocytes were untreated (lightest gray bars) or treated with fasted serum (light gray bars), post-fed serum (black bars) and Phenylephrin (PE; dark gray bars). After 48 hours, RNA was isolated and cDNA was obtained by standard procedures. The expression of several pathologic hypertrophic markers was measured by quantitative real-time PCR including β-myosin heavy chain, atrial natriuretic factor (ANF), brain natriuretic peptide (BNP), skeletal actin and sarcoplasmic reticulum calcium ATPase (SERCA).
Total RNA was extracted by TRizol (Invitrogen). 0.5 μg of RNA was reverse transcribed into cDNA using the SuperScript III first-strand cDNA synthesis kit (Invitrogen). Typically, 0.1 ng of cDNA, 12.5 nM of each primer, and Power SYBER Green PCR Master Mix (Applied Biosystems, Foster City, Calif.) were used in the reverse transcription (RT)-PCR reactions. Reactions were performed using the ABI7300 system. The primers used are presented on Table 1.
Total RNA was extracted from mouse or python ventricle and NRVMs using TRI Reagent (Invitrogen). 0.5 to 2.0 μg of RNA was reverse transcribed into cDNA using the SuperScript III first-strand cDNA synthesis kit (Invitrogen). Quantitative real time PCR reactions were performed using the ABI7300 system (Applied Biosystems, Foster City, Calif., USA) and the Power SYBR Green PCR Master Mix (Applied Biosystems). […]

“Also recorded” adds a separate entry of the source.

Consider `CCCCCCCCCCCCCC(=O)O` [C14, tetradecanoic acid], for which the cell size entry in assay [1] (fasted plasma (2%) supplemented with fatty acids at 1 DPF levels (C14 40 μM; C16 137 μM; C16:1 7.5 μM), 48 hours) is given as “significant increase in cell size”. In assay [2] (fasted plasma supplemented with FFAs, relative to 1 DPF plasma), the “Aqp7 mRNA levels” value is given as “comparable levels observed with 1 DPF plasma”. Moreover, the “AQP7 mRNA expression” value in assay [2] was “tended to increase AQP7 mRNA expression in a dose-dependent manner”. As for `CCCCCCCCCCCCCCCC(=O)O` [C16, hexadecanoid acid], the “AQP7 mRNA expression” value in assay [2] is recorded as “tended to increase AQP7 mRNA expression in a dose-dependent manner”. Still for that read-out and setting: as for `CCCCCC/C=C\CCCCCCCC(=O)O` [C16:1, (z)-9-hexadecenoic acid], the entry is “tended to increase AQP7 mRNA expression in a dose-dependent manner”. Turning to `CCCCCCCC/C=C\CCCCCCCC(=O)ON1C(=O)CC(S(=O)(=O)O)C1=O` (centres unmarked) [SSO, sulfo-N-succinimidyl oleate], the “effect on cell growth (hypertrophy) induced by fed serum/plasma” value in assay [1] (SSO 400 μM, 2% 1DPF fed serum/plasma) is “completely blocks the cell growth induced by the fed-serum; also recorded: completely blocked the pro-hypertrophic effect of fed plasma; also recorded: significantly reduced”. For the same compound, in assay [1] (presence of SSO, no serum), the “cell size, no serum (control)” value is given as “smaller”.

In the case of `CNC[C@H](O)c1cccc(O)c1` [phenylephrine], in assay [3], the “activation of fetal gene program / pathological gene expression” value is given as “robust activation of pathological patterns of gene expression”.
